Drawing on patent US9115137B2, “2,3,4,5-tetrahydro-1H-pyrido[4,3-B]indole compounds and methods of use thereof” (priority 2008, dated 2015), this text covers inhibition for twelve compounds.

The target of assay [1] is T1, human recombinant serotonin (5-Hydroxytryptamine) 5-HT6 receptor (Homo sapiens, UniProt P50406).
T1 construct: expressed in transfected cells; host or cells: human HeLa cells
Nature of the assay: Serotonin 5-HT6 radioligand binding ([3H]LSD). The following applies: compound at 1 μM; HeLa cells; read-out: Serotonin (1 μM) 5-HT6, percent inhibition of specific binding. The procedure, abridged:
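HeLa membranes expressing receptor, in 50 mM Tris-HCl pH 7.4 with 150 mM NaCl, 2 mM ascorbate, 0.001% BSA, incubated with 1.5 nM [3H]LSD for 120 min at 37 °C. Nonspecific binding defined with 5 μM 5-HT.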

In assay [2] the target is T2, human recombinant serotonin (5-Hydroxytryptamine) 5-HT2C receptor (Homo sapiens, UniProt P28335).
T2 construct: expressed in transfected cells; host or cells: CHO-K1 cells
T2 sequence (P28335 33-458): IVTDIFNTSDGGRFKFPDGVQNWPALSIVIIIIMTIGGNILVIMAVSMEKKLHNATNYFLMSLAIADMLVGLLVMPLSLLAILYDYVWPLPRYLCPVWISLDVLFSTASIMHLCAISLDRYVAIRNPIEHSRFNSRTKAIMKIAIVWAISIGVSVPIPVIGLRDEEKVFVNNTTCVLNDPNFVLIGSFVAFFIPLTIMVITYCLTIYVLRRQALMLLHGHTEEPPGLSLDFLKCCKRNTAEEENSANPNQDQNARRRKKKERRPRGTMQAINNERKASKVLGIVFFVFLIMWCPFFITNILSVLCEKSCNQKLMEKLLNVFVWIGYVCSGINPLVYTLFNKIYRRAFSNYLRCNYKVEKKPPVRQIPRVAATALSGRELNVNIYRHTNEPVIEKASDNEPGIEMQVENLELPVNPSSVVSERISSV
As to the kind of experiment: Serotonin 5-HT2C radioligand binding ([3H]Mesulergine). The following applies: compound at 1 μM; CHO-K1 cells; read-out: Serotonin (1 μM) 5-HT2C, percent inhibition of specific binding. The procedure, abridged: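 Membranes from CHO-K1 cells expressing the human receptor were incubated 60 min at 25 °C with 1 nM [3H]mesulergine in 50 mM Tris-HCl pH 7.4 with ascorbic acid and pargyline; 1 μM mianserin defined non-specific binding.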

Assay [3] deals with T3, human recombinant dopamine D2L receptor (Homo sapiens, UniProt P14416).
T3 construct: expressed in transfected cells; host or cells: CHO cells
T3 sequence (P14416 whole entry): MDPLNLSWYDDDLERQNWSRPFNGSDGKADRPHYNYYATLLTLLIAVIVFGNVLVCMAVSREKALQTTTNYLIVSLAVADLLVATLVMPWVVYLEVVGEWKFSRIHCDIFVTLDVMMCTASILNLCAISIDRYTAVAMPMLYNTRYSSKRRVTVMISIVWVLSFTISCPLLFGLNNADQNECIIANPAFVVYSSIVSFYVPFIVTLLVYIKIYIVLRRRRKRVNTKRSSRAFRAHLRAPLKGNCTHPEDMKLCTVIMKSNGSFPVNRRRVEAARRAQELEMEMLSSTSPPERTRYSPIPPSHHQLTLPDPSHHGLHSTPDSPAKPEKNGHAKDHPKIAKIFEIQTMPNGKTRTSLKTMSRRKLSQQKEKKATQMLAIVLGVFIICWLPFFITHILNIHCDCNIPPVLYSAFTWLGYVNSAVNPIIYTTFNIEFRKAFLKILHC
As to the kind of experiment: Dopamine D2L radioligand binding ([3H]Spiperone). Particulars: compound at 1 μM; CHO cells; read-out: Dopamine (1 μM) D2L, percent inhibition of specific binding. The procedure, abridged:
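CHO cells expressing the receptor, in 50 mM Tris-HCl pH 7.4 with 1.4 mM ascorbic acid, 0.001% BSA, 150 mM NaCl; 0.16 nM [3H]spiperone, 120 min at 25° C, nonspecific binding with 10 μM haloperidol.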

In assay [4] the target is T4, human recombinant histamine H1 receptor (Homo sapiens, UniProt P35367).
T4 construct: expressed in transfected cells; host or cells: CHO cells
T4 sequence (P35367 whole entry): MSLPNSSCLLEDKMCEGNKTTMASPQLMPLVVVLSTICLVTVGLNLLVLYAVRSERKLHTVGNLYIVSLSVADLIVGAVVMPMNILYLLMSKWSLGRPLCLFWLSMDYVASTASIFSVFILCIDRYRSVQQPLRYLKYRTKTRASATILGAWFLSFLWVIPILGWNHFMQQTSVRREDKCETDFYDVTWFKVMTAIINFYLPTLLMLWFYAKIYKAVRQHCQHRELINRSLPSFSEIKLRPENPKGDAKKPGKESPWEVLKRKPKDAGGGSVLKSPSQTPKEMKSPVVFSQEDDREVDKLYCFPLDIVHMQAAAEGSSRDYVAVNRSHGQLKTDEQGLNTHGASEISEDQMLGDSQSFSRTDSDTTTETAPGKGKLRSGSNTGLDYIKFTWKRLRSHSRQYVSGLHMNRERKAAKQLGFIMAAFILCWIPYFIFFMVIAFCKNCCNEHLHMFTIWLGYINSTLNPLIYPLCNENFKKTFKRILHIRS
As to the kind of experiment: Histamine H1 radioligand binding ([3H]Pyrilamine). The following applies: compound at 1 μM; CHO cells; read-out: Histamine Binding (1 μM) H1, percent inhibition of specific binding. The procedure, abridged: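 Recombinant human H1 receptor expressed in CHO cells, in Tris-HCl pH 7.4 with MgCl2, NaCl and sucrose, incubated with 1.2 nM [3H]pyrilamine for 180 min at 25 °C; non-specific binding defined with 1 μM pyrilamine. Compounds tested at 1 μM in 1% DMSO; filter-bound counts give percent inhibition of specific binding.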

T1 sequence (P50406 whole entry): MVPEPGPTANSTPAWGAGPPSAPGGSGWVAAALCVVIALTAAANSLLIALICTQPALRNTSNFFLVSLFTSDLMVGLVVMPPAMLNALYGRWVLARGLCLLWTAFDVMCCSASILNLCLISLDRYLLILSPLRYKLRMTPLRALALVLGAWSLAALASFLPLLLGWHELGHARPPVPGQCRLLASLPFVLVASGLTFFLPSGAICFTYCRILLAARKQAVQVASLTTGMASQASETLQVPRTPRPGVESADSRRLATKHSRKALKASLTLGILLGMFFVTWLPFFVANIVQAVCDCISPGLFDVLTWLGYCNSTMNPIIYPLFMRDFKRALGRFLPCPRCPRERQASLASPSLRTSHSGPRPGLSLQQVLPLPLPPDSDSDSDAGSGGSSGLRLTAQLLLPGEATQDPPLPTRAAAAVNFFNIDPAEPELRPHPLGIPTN

What is called inhibition is the relative decrease from the control value, in per cent. On to `Cc1ccc2c(c1)c1c(n2CCC(=O)NCc2ccccc2)CCN(C)C1` [Compound 59, N-benzyl-3-(1,2,3,4-tetrahydro-2,8-dimethylpyrido[4,3-b]indol-5-yl)propanamide], for which the inhibition at 1 µM was found to be 22% in assay [1], 72% in assay [2], 4% in assay [3] and 60% in assay [4].

As for `CN1CCc2c(c3cc(Cl)ccc3n2CC(=O)NC2CCCCC2)C1` [Compound 60, 2-(8-chloro-1,2,3,4-tetrahydro-2-methylpyrido[4,3-b]indol-5-yl)-N-cyclohexylacetamide], the inhibition at 1 µM in assay [1] was 22%; in assay [2], 35%; in assay [3], 18%; in assay [4], 50%.

As for `Cc1ccc2c(c1)c1c(n2CCNC(=O)C(C)C)CCN(C)C1` [Compound 61, N-(2-(1,2,3,4-tetrahydro-2,8-dimethylpyrido[4,3-b]indol-5-yl)ethyl)isobutyramide], the inhibition at 1 µM was 10% in assay [1], 27% in assay [2], -3% in assay [3] and 32% in assay [4].

Turning to `Cc1ccc2c(c1)c1c(n2CCNC(=O)C2CCCCC2)CCN(C)C1` [Compound 62, N-(2-(1,2,3,4-tetrahydro-2,8-dimethylpyrido[4,3-b]indol-5-yl)ethyl)cyclohexanecarboxamide], the inhibition at 1 µM in assay [1] worked out at 19%; in assay [2], 54%; in assay [3] it was 5%; in assay [4], 63%.

As to `Cc1ccc2c(c1)c1c(n2CCNC(=O)c2ccc(F)cc2Cl)CCN(C)C1` [Compound 63, 2-chloro-4-fluoro-N-(2-(1,2,3,4-tetrahydro-2,8-dimethylpyrido[4,3-b]indol-5-yl)ethyl)benzamide], the inhibition at 1 µM in assay [1] was 31%; in assay [2], 72%; in assay [3], 7%; in assay [4] it was 86%.

With `Cc1ccc2c(c1)c1c(n2CC(N)=O)CCN(C)C1` [Compound 64, 2-(1,2,3,4-tetrahydro-2,8-dimethylpyrido[4,3-b]indol-5-yl)acetamide], the inhibition at 1 µM came out at 5% in assay [1], 45% in assay [2], 2% in assay [3] and 62% in assay [4].

As for `Cc1ccc2c(c1)c1c(n2CCNC(=O)C2CCNCC2)CCN(C)C1` [Compound 65, N-(2-(1,2,3,4-tetrahydro-2,8-dimethylpyrido[4,3-b]indol-5-yl)ethyl)piperidine-4-carboxamide], the inhibition at 1 µM in assay [1] amounted to 3%; in assay [2], 24%; in assay [3], 7%; in assay [4], 34%.

With `Cc1ccc2c(c1)c1c(n2CCNC(=O)c2ccc(F)cc2)CCN(C)C1` [Compound 66, 4-fluoro-N-(2-(1,2,3,4-tetrahydro-2,8-dimethylpyrido[4,3-b]indol-5-yl)ethyl)benzamide], the inhibition at 1 µM in assay [1] was 35%; in assay [2], 93%; in assay [3], -2%; in assay [4], 66%.

With `CN1CCc2c(c3cc(Cl)ccc3n2CCC(N)=O)C1` [Compound 67, 3-(8-chloro-1,2,3,4-tetrahydro-2-methylpyrido[4,3-b]indol-5-yl)propanamide], the inhibition at 1 µM is 24% in assay [1], 65% in assay [2], -1% in assay [3] and 70% in assay [4].

As for `Cc1ccc2c(c1)c1c(n2CCNC(=O)C2CCCC2)CCN(C)C1` [Compound 68, N-(2-(1,2,3,4-tetrahydro-2,8-dimethylpyrido[4,3-b]indol-5-yl)ethyl)cyclopentanecarboxamide], the inhibition at 1 µM in assay [1] was 15%; in assay [2], 40%; in assay [3], 1%; in assay [4] it was 58%.

As to `Cc1ccc2c(c1)c1c(n2CCNC(=O)c2ccncc2C)CCN(C)C1` [Compound 69, N-(2-(1,2,3,4-tetrahydro-2,8-dimethylpyrido[4,3-b]indol-5-yl)ethyl)-3-methylpyridine-4-carboxamide], the inhibition at 1 µM in assay [1] is -4%; in assay [2], 24%; in assay [3], 4%; in assay [4], 88%.

In the case of `Cc1ccc2c(c1)c1c(n2C2CCCCC2O)CCN(C)C1` (stereo not drawn) [Compound 73, 2-(1,2,3,4-tetrahydro-2,8-dimethylpyrido[4,3-b]indol-5-yl)cyclohexanol], the inhibition at 1 µM in assay [1] is 7%; in assay [2], 52%; in assay [3], -3%; in assay [4] it was 2%.
